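Step 1: Grow cells in 96-well plates. Step 2: Expose to compound for 48 hours at 5 concentrations. Step 3: Interpolate endpoints linearly; if unreached, use highest concentration. Abbreviation: GI50, concentration required for 50% inhibition of growth.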 Active and inactive are the calls of the source. Cut-off read from the data, not from the text of the source: active = GI50 up to about 1.1 µM and inactive = higher.
Columns and labels:
Test in all cases: NCI anticancer screen, dose series, 48 h
OVCAR-8 = tested on: OVCAR-8
MCF7 = tested on: MCF7
HT-29 = tested on: HT-29
SNB-75 = tested on: SNB-75
K562 = tested on: K562
A549 = tested on: A549
IGROV-1 = tested on: IGROV-1
SNB-19 = tested on: SNB-19
DU-145 = tested on: DU-145
EKVX = tested on: EKVX
SK-OV-3 = tested on: SK-OV-3
RXF 393 = tested on: RXF 393
HL-60 = tested on: HL-60
HOP-92 = tested on: HOP-92
SK-MEL-28 = tested on: SK-MEL-28
SR = tested on: SR
M14 = tested on: M14
NCI-H460 = tested on: NCI-H460

Row | Compound | GI50 (OVCAR-8) | GI50 (MCF7) | GI50 (HT-29) | GI50 (SNB-75) | GI50 (K562) | GI50 (A549) | GI50 (IGROV-1) | GI50 (SNB-19) | GI50 (DU-145) | GI50 (EKVX) | GI50 (SK-OV-3) | GI50 (RXF 393) | GI50 (HL-60) | GI50 (HOP-92) | GI50 (SK-MEL-28) | GI50 (SR) | GI50 (M14) | GI50 (NCI-H460)
1 | O=C1c2cc([N+](=O)[O-])ccc2-c2ccc3c4ccc5c6c(ccc(c7ccc1c2c73)c64)C(=O)c1cc([N+](=O)[O-])ccc1-5 | > 100 µM (inactive) | > 100 µM (inactive) | > 100 µM (inactive) | > 100 µM (inactive) | > 100 µM (inactive) | > 100 µM (inactive) | > 100 µM (inactive) | > 100 µM (inactive) | > 100 µM (inactive) | > 100 µM (inactive) | > 100 µM (inactive) | > 100 µM (inactive) | > 100 µM (inactive) | > 100 µM (inactive) | > 100 µM (inactive) | > 100 µM (inactive) | > 100 µM (inactive) | 
2 | NC(=O)c1csc(-c2ccc(CO)o2)n1 | > 100 µM (inactive) | > 100 µM (inactive) | > 100 µM (inactive) |  | > 100 µM (inactive) | > 100 µM (inactive) | > 100 µM (inactive) | > 100 µM (inactive) | > 100 µM (inactive) | > 100 µM (inactive) | > 100 µM (inactive) | > 100 µM (inactive) | > 100 µM (inactive) | > 100 µM (inactive) | > 100 µM (inactive) | > 100 µM (inactive) | > 100 µM (inactive) | > 100 µM (inactive)
3 | CCOc1ncn(-c2ccc(NC(=S)NC34CC5CC(CC(C5)C3)C4)cc2)n1 | 22.8 µM (inactive) | > 100 µM (inactive) | 80.5 µM (inactive) | 25.4 µM (inactive) | > 100 µM (inactive) | 7.24 µM (inactive) | > 100 µM (inactive) | 46.1 µM (inactive) | > 100 µM (inactive) | > 100 µM (inactive) | 33.2 µM (inactive) |  | > 100 µM (inactive) | 25 µM (inactive) | 61.8 µM (inactive) | > 100 µM (inactive) | 61.9 µM (inactive) | 53.5 µM (inactive)
4 | CCOC(=O)c1c(OCC)[nH]c(=O)c(C(c2ccc(F)cc2)c2c(O)c(C(=O)OCC)c(OCC)[nH]c2=O)c1O | 14 µM (inactive) | 20.4 µM (inactive) | 16.1 µM (inactive) |  | 16.5 µM (inactive) | 14.8 µM (inactive) | 14.9 µM (inactive) | 17.1 µM (inactive) | 11.1 µM (inactive) | 7.06 µM (inactive) |  | 4.28 µM (inactive) | 17.2 µM (inactive) | 1.46 µM (inactive) | 11.9 µM (inactive) | 10.5 µM (inactive) | 24.6 µM (inactive) | 16.4 µM (inactive)
5 | O=C1c2cccc3cc([N+](=O)[O-])cc(c23)C(=O)N1c1ccc(OCCN2CCCC2)cc1 | 19.8 µM (inactive) | 7.94 µM (inactive) | 11.7 µM (inactive) | 22 µM (inactive) |  | 3.3 µM (inactive) | 12.3 µM (inactive) | 26.1 µM (inactive) | 23.3 µM (inactive) | 21.6 µM (inactive) |  | 17.9 µM (inactive) | 10.8 µM (inactive) | 24.3 µM (inactive) | 23 µM (inactive) | 2.23 µM (inactive) | 20 µM (inactive) | 3.26 µM (inactive)
6 | Cn1c(=O)c2c3ccccc3n(C)c2n(C)c1=O | > 100 µM (inactive) | > 100 µM (inactive) | > 100 µM (inactive) | 1.26 µM (inactive) | > 100 µM (inactive) | > 100 µM (inactive) | > 100 µM (inactive) | > 100 µM (inactive) | > 100 µM (inactive) | > 100 µM (inactive) | 22.3 µM (inactive) | > 100 µM (inactive) | > 100 µM (inactive) | > 100 µM (inactive) |  | > 100 µM (inactive) | > 100 µM (inactive) | 
7 | COc1cc2c(c(OC)c1OC)C(=O)[C@H]1OC(=O)N[C@@H]21 | > 100 µM (inactive) | > 100 µM (inactive) | > 100 µM (inactive) | > 100 µM (inactive) | > 100 µM (inactive) | > 100 µM (inactive) |  | > 100 µM (inactive) | > 100 µM (inactive) |  | > 100 µM (inactive) | > 100 µM (inactive) | > 100 µM (inactive) | > 100 µM (inactive) | > 100 µM (inactive) | > 100 µM (inactive) | > 100 µM (inactive) | 
8 | CC(=O)c1c2c(cc3c1CC1(C3)Cc3cc4c(c(C(=O)O)c3C1)CCCC4)CCCC2.CC(N)c1ccccc1 (stereo not given) | 28.2 µM (inactive) | 29.1 µM (inactive) | 34.1 µM (inactive) | 39.7 µM (inactive) | 36.4 µM (inactive) | 30.2 µM (inactive) | 34.8 µM (inactive) | 46.5 µM (inactive) | 49 µM (inactive) | 26.4 µM (inactive) | 39.5 µM (inactive) |  | 25.5 µM (inactive) | 15.4 µM (inactive) | 33.4 µM (inactive) | 20.3 µM (inactive) | 28.8 µM (inactive) | 20.2 µM (inactive)
9 | N#CC1=C(S)N(C2OC(CO)C(O)C(O)C2O)C(c2ccccc2)=CC1c1ccco1 (stereo not given) | 40.4 µM (inactive) | 62.2 µM (inactive) | > 100 µM (inactive) | 16.6 µM (inactive) | 42.7 µM (inactive) | 46.1 µM (inactive) | > 100 µM (inactive) | 69.5 µM (inactive) | > 100 µM (inactive) |  |  | 44 µM (inactive) | > 100 µM (inactive) | 32.6 µM (inactive) | 91.6 µM (inactive) | 36.9 µM (inactive) | 50.5 µM (inactive) | 28.2 µM (inactive)
10 | COc1cc(/C=C/C2=NN(c3cccc(S(=O)(=O)O)c3)C3(C2)SCC(=O)N3c2nc3ccccc3s2)cc(OC)c1OC (stereo not given) | 44.1 µM (inactive) | 36.9 µM (inactive) | 90.8 µM (inactive) | 63.5 µM (inactive) | 41.1 µM (inactive) | 56.1 µM (inactive) | 43.2 µM (inactive) | 31.9 µM (inactive) | 29.4 µM (inactive) | 68.1 µM (inactive) |  | 56.4 µM (inactive) | 23.8 µM (inactive) | > 100 µM (inactive) | > 100 µM (inactive) | 23.8 µM (inactive) | 74.8 µM (inactive) | 37.5 µM (inactive)
11 | CC(=O)OCC1OC(n2c3c(cc(C#N)c2=O)CCCCCC3)C(OC(C)=O)C(OC(C)=O)C1OC(C)=O (stereo not given) | > 100 µM (inactive) | > 100 µM (inactive) | > 100 µM (inactive) | 18.4 µM (inactive) | > 100 µM (inactive) | > 100 µM (inactive) | > 100 µM (inactive) | > 100 µM (inactive) | > 100 µM (inactive) |  |  | > 100 µM (inactive) | > 100 µM (inactive) | > 100 µM (inactive) | > 100 µM (inactive) | 96.6 µM (inactive) | > 100 µM (inactive) | > 100 µM (inactive)
12 | C=C1CN2CC(=C)CN(C1)CS(=O)(=O)N1CC(=C)CN(CC(=C)C1)S(=O)(=O)N1CC(=C)CN(CC(=C)C1)S(=O)(=O)C2 | 40 µM (inactive) | 50.1 µM (inactive) | > 100 µM (inactive) |  | 56.5 µM (inactive) | 50.8 µM (inactive) | 59.8 µM (inactive) | 40.7 µM (inactive) | 38.3 µM (inactive) | 39.1 µM (inactive) |  | 19.5 µM (inactive) | 35 µM (inactive) | 31.3 µM (inactive) | 20.3 µM (inactive) | > 100 µM (inactive) | 37.6 µM (inactive) | > 100 µM (inactive)
13 | CC(=O)N1N=C(c2ccc3ccccc3c2O)CC1C(=O)c1ccco1 (stereo not given) | 25.5 µM (inactive) | 21.4 µM (inactive) | 22.8 µM (inactive) | 14.3 µM (inactive) | 11.6 µM (inactive) | 27.9 µM (inactive) | 12.7 µM (inactive) |  | 47.9 µM (inactive) |  | 36.1 µM (inactive) | 32.4 µM (inactive) |  | 16.6 µM (inactive) | 37.8 µM (inactive) | 3.78 µM (inactive) | 19.3 µM (inactive) | 15.3 µM (inactive)
14 | c1ccc(CN2C3C4N(Cc5ccccc5)C2C2N(Cc5ccccc5)C(C(N2Cc2ccccc2)N4Cc2ccccc2)N3Cc2ccccc2)cc1 | > 100 µM (inactive) | > 100 µM (inactive) | > 100 µM (inactive) | > 100 µM (inactive) | > 100 µM (inactive) | > 100 µM (inactive) | > 100 µM (inactive) |  | > 100 µM (inactive) | > 100 µM (inactive) | > 100 µM (inactive) | > 100 µM (inactive) | > 100 µM (inactive) | > 100 µM (inactive) | > 100 µM (inactive) | > 100 µM (inactive) | > 100 µM (inactive) | 
15 | COc1cc2cc(C(=O)N3CC(CCl)c4c3cc([N+](=O)[O-])c3ccccc43)[nH]c2c(OC)c1OC (stereo not given) | 12.8 µM (inactive) | 17.3 µM (inactive) | 40.6 µM (inactive) | 31.8 µM (inactive) | 15.3 µM (inactive) | 1.8 µM (inactive) | 33 µM (inactive) | 87.7 µM (inactive) | 12.5 µM (inactive) | 16.7 µM (inactive) | > 48.5 µM (inactive) | > 89.3 µM (inactive) |  | > 70.1 µM (inactive) | > 100 µM (inactive) | 0.455 µM (active) | 46.6 µM (inactive) | 4.68 µM (inactive)
16 | Cc1ccc2c(c1)NC(=O)CC(c1ccccc1)=N2 | > 100 µM (inactive) | 71.8 µM (inactive) | > 100 µM (inactive) | 76.7 µM (inactive) | 5.18 µM (inactive) | 81.7 µM (inactive) | > 100 µM (inactive) | > 100 µM (inactive) | > 100 µM (inactive) | > 100 µM (inactive) | > 100 µM (inactive) |  |  | > 100 µM (inactive) | > 100 µM (inactive) | 23.7 µM (inactive) | > 100 µM (inactive) | > 100 µM (inactive)

Source: ChEMBL document CHEMBL1201862, “PubChem BioAssay data set” (2004)
